Assay results: patent US11667602B2, “Compounds and their use” (AstraZeneca AB, priority 2020, dated 2023)

Molecular target: T1, human RXFP1 (Homo sapiens, UniProt Q9HBX9)
T1 sequence (Q9HBX9 1-757): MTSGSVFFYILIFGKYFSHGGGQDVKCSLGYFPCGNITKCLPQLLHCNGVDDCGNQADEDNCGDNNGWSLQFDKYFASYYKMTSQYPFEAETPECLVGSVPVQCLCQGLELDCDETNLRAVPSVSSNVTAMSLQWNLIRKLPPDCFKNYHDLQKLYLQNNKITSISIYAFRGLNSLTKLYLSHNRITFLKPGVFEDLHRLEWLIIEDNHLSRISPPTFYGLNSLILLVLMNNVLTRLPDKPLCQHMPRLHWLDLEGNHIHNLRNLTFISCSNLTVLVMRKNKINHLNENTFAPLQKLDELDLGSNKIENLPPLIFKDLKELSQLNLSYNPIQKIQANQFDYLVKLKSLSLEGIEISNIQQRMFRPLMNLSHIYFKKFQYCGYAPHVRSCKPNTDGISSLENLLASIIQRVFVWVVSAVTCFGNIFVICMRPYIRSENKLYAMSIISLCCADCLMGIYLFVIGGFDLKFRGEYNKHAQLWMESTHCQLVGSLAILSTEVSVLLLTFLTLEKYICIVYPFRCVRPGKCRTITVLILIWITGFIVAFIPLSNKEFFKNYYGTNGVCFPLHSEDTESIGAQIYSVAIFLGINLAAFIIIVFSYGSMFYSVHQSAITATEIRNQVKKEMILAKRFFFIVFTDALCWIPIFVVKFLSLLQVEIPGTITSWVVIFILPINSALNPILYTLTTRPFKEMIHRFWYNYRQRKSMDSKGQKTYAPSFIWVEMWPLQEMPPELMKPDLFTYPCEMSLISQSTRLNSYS
Assay: RXFP1 Hu cAMP (Test A)
Type: cell-based
Design: expressed in transfected cells; host or cells: Jump-In T-REx CHO-K1 cells (ThermoFisher), induced with 10 ng/ml doxycycline for 24 h
Settings: RXFP1 Hu cAMP; for EC50: read-out: Test A EC50
From the text: To screen for modulators of hRXFP1, an assay identifying compounds that stimulate cAMP production via the Gs-coupled hRXFP1 receptor was used. cAMP HiRange HTRF kit (available from CisBio Bioassays, France; catalogue number 62AM6PEJ) was employed in large according to manufacturer's recommendations for detection of cAMP. The HTRF method is a competitive immunoassay between native cAMP produced by cells and cAMP labeled with the dye d2. The tracer binding is visualized with a cryptate labeled antibody for cAMP and the signal is thus inversely proportional to the amount of produced cAMP.
Cells: Jump-In™ T-REx™ CHO-K1 Cells (ThermoFisher) stably transfected with human RXFP1 was employed. Cells were induced to express human RXFP1 by treatment with 10 ng/ml doxycycline for 24 h. Cells were then cryopreserved for long term storage.
HTRF detection reagents: cAMP-d2 and anti-cAMP cryptate reconstituted according to CisBio instructions were diluted 1:40 in lysis buffer provided with the HTRF-kit.
3. 4 μL assay buffer with 1 mM IBMX (0.5 mM final concentration) to block phosphodiesterases was added with Multidrop Combi (ThermoFisher).
6. 4 μL cAMP-d2 in lysis buffer was added with Multidrop Combi.
7. 4 μL anti-cAMP cryptate in lysis buffer was added with Multidrop Combi
8. 2 h incubation at room temperature
Using a cAMP standard curve, HTRF data was converted to amount cAMP produced in the samples which was subsequentially used for calculation of concentration responses. Concentration response data were fitted with a four parameter logistic fit, the Hill equation. The results from the assay are reported in Table 36 as EC50 (μM) and Sinf (%).
Where the assay was run multiple times for the same compound, the geometric mean is reported.
Sinf is the fitted activity level, efficacy, at infinite concentration of test compound. To facilitate comparison of efficacy data, efficacy was normalized to % effect of the response stimulated by a saturating concentration of relaxin (1 nM). Where the assay was run multiple times for the same compound, the arithmetic mean is reported.

| Molecule | Test A Sinf | EC50 |
| --- | --- | --- |
| (1R,4s)-4-(2-Fluoro-4-methoxy-5-(((1R*,2S*,3R*,4S*)-3-(((1-methylcyclobutyl)methyl)carbamoyl)bicyclo[2.2.2]oct-5-en-2-yl)carbamoyl)phenoxy)-1-methylcyclohexane-1-carboxylic acid [Example 545] | 91% |  |
| COc1cc(C#N)c(O[C@H]2CC[C@@](C)(C(=O)O)CC2)cc1C(=O)Nc1cc(Cl)ccc1C(=O)NCC(C)(C)F [Example 164] | 142% | 130 nM |
| COc1cc(F)c(O[C@H]2CC[C@@](C)(C(=O)O)CC2)cc1C(=O)N[C@@H]1CCO[C@@H]1C(=O)Nc1cccc(S(=O)(=O)C(F)(F)F)c1 [Example 356] | 119% |  |
| COc1cc(F)c(O[C@H]2CC[C@@](C)(C(=O)O)CC2)cc1C(=O)N[C@@H]1[C@H]2CC[C@H](C2)[C@@H]1C(=O)N[C@H]1CCCN(S(=O)(=O)C(F)(F)F)C1 [Example 607] | 92% | 160 nM |
| COc1cc(F)c(O[C@H]2CC[C@@](CO)(C(=O)O)CC2)cc1C(=O)NC1C2CCC(C2)C1C(=O)Nc1cccc(S(=O)(=O)C(F)(F)F)c1 (single isomer, unassigned) [Example 584, (1R,4s)-4-(2-Fluoro-4-methoxy-5-(((1S*,2S*,3R*,4R*)-3-((3-((trifluoromethyl)sulfonyl)phenyl)carbamoyl)bicyclo[2.2.1]heptan-2-yl)carbamoyl)phenoxy)-1-(hydroxymethyl)cyclohexane-1-carboxylic acid] | 106% | 0.7 nM |
| COc1cc(F)c(-c2cc(C(=O)O)cs2)cc1C(=O)N[C@H]1[C@@H](C(=O)Nc2cccc(S(=O)(=O)C(F)(F)F)c2)[C@@H]2C=C[C@H]1C2 (racemic) [Example 284, rac-5-(2-Fluoro-4-methoxy-5-(((1R,2R,3S,4S)-3-((3-((trifluoromethyl)sulfonyl)phenyl)carbamoyl)bicyclo[2.2.1]hept-5-en-2-yl)carbamoyl)phenyl)thiophene-3-carboxylic acid] | 85% | 820 nM |
| COc1cc(F)c(O[C@H]2CC[C@@](C)(C(=O)O)CC2)cc1C(=O)N[C@@H]1COC[C@@H]1C(=O)NCC1(C)CCC1 (racemic) [Example 350] | 97% | 3900 nM |
| COc1cc(F)c(O[C@H]2CC[C@@](CO)(C(=O)O)CC2)cc1C(=O)NC1C2CCC(O2)C1C(=O)NCC1(C)CCC1 (single isomer, unassigned) [Example 532, (1R,4s)-4-(2-Fluoro-4-methoxy-5-(((1S*,2S*,3R*,4R*)-3-(((1-methylcyclobutyl)methyl)carbamoyl)-7-oxabicyclo[2.2.1]heptan-2-yl)carbamoyl)phenoxy)-1-(hydroxymethyl)cyclohexane-1-carboxylic acid] | 104% | 140 nM |
| COc1cc(F)c(O[C@H]2CC[C@@](C)(C(=O)O)CC2)cc1C(=O)N[C@@H]1[C@H]2CC[C@H](C2)[C@@H]1C(=O)NC1CCCC1(C)C (relative stereo) [Example 503, (1S,4s)-4-(5-(((1S,2R,3S,4R)-3-(((R*)-2,2-Dimethylcyclopentyl)carbamoyl)bicyclo[2.2.1]heptan-2-yl)carbamoyl)-2-fluoro-4-methoxyphenoxy)-1-methylcyclohexane-1-carboxylic acid] | 102% | 60 nM |
| COc1cc(F)c(-c2ccc(C(=O)O)nc2)cc1C(=O)N[C@H]1[C@@H](C(=O)Nc2cccc(S(=O)(=O)C(F)(F)F)c2)[C@@H]2C=C[C@H]1C2 (racemic) [Example 274, rac-5-(2-Fluoro-4-methoxy-5-(((1R,2R,3S,4S)-3-((3-((trifluoromethyl)sulfonyl)phenyl)carbamoyl)bicyclo[2.2.1]hept-5-en-2-yl)carbamoyl)phenyl)picolinic acid] | 61% | 5700 nM |
| COc1ccc(-c2cc(C(=O)N[C@H]3[C@@H](C(=O)Nc4cccc(S(=O)(=O)C(F)(F)F)c4)[C@@H]4C=C[C@H]3C4)c(OC)cc2F)cc1C(=O)O (racemic) [Example 230] | 116% | 1000 nM |
| COc1cc(F)c(-c2cnc([C@@H]3C[C@H]3C(=O)O)cn2)cc1C(=O)N[C@@H]1[C@H]2CC[C@H](C2)[C@@H]1C(=O)Nc1cccc(S(=O)(=O)C(F)(F)F)c1 (single isomer, unassigned) [Example 263, (1R*,2R*)-2-(5-(2-Fluoro-4-methoxy-5-(((1S,2R,3S,4R)-3-((3-((trifluoromethyl)sulfonyl)phenyl)carbamoyl)bicyclo[2.2.1]heptan-2-yl)carbamoyl)phenyl)pyrazin-2-yl)cyclopropane-1-carboxylic acid] | 106% | 84 nM |
| COc1cc(F)c(O[C@H]2CC[C@@](C)(C(=O)O)CC2)cc1C(=O)N[C@H]1[C@@H](C(=O)NCC2(C)CCC2)[C@H]2C=C[C@@H]1CC2 (racemic) [Example 471, (1R,4s)-4-(2-Fluoro-4-methoxy-5-(((1RS,2SR,3RS,4SR)-3-(((1-methylcyclobutyl)methyl)carbamoyl)bicyclo[2.2.2]oct-5-en-2-yl)carbamoyl)phenoxy)-1-methylcyclohexane-1-carboxylic acid] | 95% | 91 nM |
| COc1cc(F)c(-c2ccc(CCS(N)(=O)=O)cc2)cc1C(=O)N[C@H]1[C@H]2CC[C@H](C2)[C@H]1C(=O)Nc1cccc(S(=O)(=O)C(F)(F)F)c1 (single isomer, unassigned) [Example 327] |  | > 40000 nM |
| COc1cc(F)c(-c2cnc(C(=O)O)nc2)cc1C(=O)N[C@H]1[C@@H](C(=O)Nc2cccc(S(=O)(=O)C(F)(F)F)c2)[C@@H]2C=C[C@H]1C2 (racemic) [Example 280] |  | > 40000 nM |
| COc1cc(C#N)c(O[C@H]2CC[C@@](C)(C(=O)O)CC2)cc1C(=O)N[C@H]1[C@@H](C(=O)NCC2(C)CCC2)[C@H]2C=C[C@@H]1CC2 (racemic) [Example 469, (1R,4s)-4-(2-Cyano-4-methoxy-5-(((1RS,2SR,3RS,4SR)-3-(((1-methylcyclobutyl)methyl)carbamoyl)bicyclo[2.2.2]oct-5-en-2-yl)carbamoyl)phenoxy)-1-methylcyclohexane-1-carboxylic acid] | 99% | 36 nM |
| COc1cc(F)c(O[C@H]2CC[C@@](C)(C(=O)O)CC2)cc1C(=O)N[C@@H]1[C@@H](O)[C@@H](O)C[C@@H]1C(=O)Nc1cccc(S(=O)(=O)C(F)(F)F)c1 (racemic) [Example 394, (1R,4s)-4-(5-(((1SR,2RS,3SR,5SR)-2,3-Dihydroxy-5-((3-((trifluoromethyl)sulfonyl)phenyl)carbamoyl)cyclopentyl)carbamoyl)-2-fluoro-4-methoxyphenoxy)-1-methylcyclohexane-1-carboxylic acid] |  | > 40000 nM |
| COc1cc(F)c(O[C@H]2CC[C@@](C)(C(=O)O)CC2)cc1C(=O)NC1COCCC1C(=O)Nc1cccc(S(=O)(=O)C(F)(F)F)c1 (single isomer, unassigned) [Example 558, (1R,4s)-4-(2-Fluoro-4-methoxy-5-(((3S*,4S*)-4-((3-((trifluoromethyl)sulfonyl)phenyl)carbamoyl)tetrahydro-2H-pyran-3-yl)carbamoyl)phenoxy)-1-methylcyclohexane-1-carboxylic acid] |  | > 40000 nM |
| COc1cc(F)c(O[C@H]2C[C@@](C)(C(=O)O)C2)cc1C(=O)N[C@@H]1[C@@H]2CC[C@@H](C2)[C@@H]1C(=O)Nc1cccc(S(=O)(=O)C(F)(F)F)c1 [Example 505, (1S,3s)-3-(2-Fluoro-4-methoxy-5-(((1R,2R,3S,4S)-3-((3-((trifluoromethyl)sulfonyl)phenyl)carbamoyl)bicyclo[2.2.1]heptan-2-yl)carbamoyl)phenoxy)-1-methylcyclobutane-1-carboxylic acid] | 94% | 14 nM |
